According to ChEMBL document CHEMBL1159211, “Antifungal evaluation of pseudolaric acid B, a major constituent of Pseudolarix kaempferi” (J Nat Prod, 1995):
Activity calls are given as the source filed them. No cut-off for these calls is given here.

Columns and labels:
Escherichia coli = experiment: Antimicrobial activity against Escherichia coli at 1 mg/mL by agar-well diffusion assay; type: functional, organism-based
Aspergillus flavus = experiment: Antimicrobial activity against Aspergillus flavus at 1 mg/mL by agar-well diffusion assay; type: functional
Candida albicans [1] = experiment: (§1) Antifungal activity against Candida albicans NIH B311 infected in mouse assessed as reduction in number of recovered colony-forming units assessed per mg of kidney at 20 mg/kg, ip administered 7 and 24 hrs after infection measured 16 hrs after final injection by tenfold serial dilution method relative to control; type: functional, organism-based; design: dose 20 mg/kg
Candida albicans [2] = experiment: as §1, with “3” for “20”; type: functional; design: scale not given: the % may be the effect or the level left; settings: route intraperitoneal
Candida albicans [3] = experiment: as §1, with “mouse tissue-burden model” for “mouse”, “3.5” for “20”; type: functional; design: scale not given: the % may be the effect or the level left; settings: route intraperitoneal
Candida albicans [4] = experiment: Antimicrobial activity against Candida albicans at 1 mg/mL by agar-well diffusion assay; type: functional; settings: Candida albicans; read-out: IZ
Candida albicans [5] = experiment: as §1, with “7” for “20”; type: functional; design: scale not given: the % may be the effect or the level left; settings: route intraperitoneal
Nannizzia gypsea = experiment: Antimicrobial activity against Microsporum gypseum at 1 mg/mL by agar-well diffusion assay; type: functional
Bacillus subtilis = experiment: Antimicrobial activity against Bacillus subtilis at 1 mg/mL by agar-well diffusion assay; type: functional, organism-based
[6] = tested on: Mycobacterium intracellulare; experiment: Antimicrobial activity against Mycobacterium intracellular at 1 mg/mL by agar-well diffusion assay; type: functional
[7] = tested on: Trichophyton mentagrophytes; experiment: Antimicrobial activity against Trichophyton mentagrophytes at 1 mg/mL by agar-well diffusion assay; type: functional
Staphylococcus aureus = experiment: Antimicrobial activity against Staphylococcus aureus at 1 mg/mL by agar-well diffusion assay; type: functional, organism-based
Aspergillus fumigatus = experiment: Antimicrobial activity against Aspergillus fumigatus at 1 mg/mL by agar-well diffusion assay; type: functional
Saccharomyces cerevisiae = experiment: Antimicrobial activity against Saccharomyces cerevisiae at 1 mg/mL by agar-well diffusion assay; type: functional, organism-based
Cryptococcus neoformans = experiment: Antimicrobial activity against Cryptococcus neoformans at 1 mg/mL by agar-well diffusion assay; type: functional
Pseudomonas aeruginosa = experiment: Antimicrobial activity against Pseudomonas aeruginosa at 1 mg/mL by agar-well diffusion assay; type: functional, organism-based

With COC(=O)C1=CC[C@@]23CC[C@@H]([C@@](C)(/C=C/C=C(\C)C(=O)O[C@@H]4O[C@H](CO)[C@@H](O)[C@H](O)[C@H]4O)OC2=O)[C@@]3(OC(C)=O)CC1 the Activity (Escherichia coli) was “inactive”, the Activity (Aspergillus flavus) was “inactive” and the Activity (Candida albicans [1]) was “inactive”. It also gave an Activity (Candida albicans [2]) of 9.91%, an Activity (Candida albicans [3]) of 10% and a zone of inhibition at 1000 µg/mL (Candida albicans [4]) of less than 1 mm. For the same compound, the Activity (Candida albicans [5]) was 46.59%, the Activity (Nannizzia gypsea) was “inactive” and the Activity (Bacillus subtilis) was “inactive”. For the same compound, the Activity [6] was “inactive”, the Activity [7] was “inactive” and the Activity (Staphylococcus aureus) was “inactive”. For the same compound, the Activity (Aspergillus fumigatus) was “inactive”, the Activity (Saccharomyces cerevisiae) was “inactive” and the Activity (Cryptococcus neoformans) was “inactive”. For the same compound, the Activity (Pseudomonas aeruginosa) was “inactive”.
